# Results: PMC7582507, “SARs for the Antiparasitic Plant Metabolite Pulchrol. Part 2: B- and C-Ring Substituents” (Molecules, 2020)
# Read-outs that look alike come from different tables or passages of the source.
# Legend:
# [1] = test system: Trypanosoma cruzi epimastigotes; experiment: Trypanocidal activity against T. cruzi epimastigotes (XTT, 72 h); format: cell-based; details: for IC50: 72 h; for selectivity ratio at 72 h: mouse (RAW cells), Trypanosoma cruzi (parasite), RAW 264.7 macrophage cells versus T. cruzi epimastigotes, read-out: T. cruzi SI (selectivity index, cytotoxicity/anti-protozoal activity); for selectivity ratio at 72 h / T. cruzi SI (selectivity index, cytotoxicity/anti-protozoal activity): IC50 RAW cells / IC50 T. cruzi
# Description: Cultures of Trypanosoma cruzi (epimastigotes, donated by the Parasitology Department of INLASA, Tc-INLASA, city, country), were maintained in medium LIT (pH 7.2), supplemented with 10% FBS and incubated at 26 °C. Medium changes were made every 72 h to maintain a viable parasitic population. Trypanocidal activity was determined according to Muelas-Serrano with some modifications. Samples were dissolved in DMSO (maximum final concentration 1%) at 10 mg/mL. Epimastigotes in logarithmic phase of growth, at a concentration of 3 × 10^6 parasites/mL, were distributed (100 μL/well) in 96-well flat bottom microtiter plates. Samples at different concentrations (3.1–100 μg/mL) were added (100 μL). Benznidazole (3.1–100 μg/mL) was used as the control drug. Assays were performed in triplicates. The microwell plates were incubated for 72 h at 26 °C. After incubation, a solution of XTT (1 mg/mL) in PBS (pH 7.0 at 37 °C) with PMS (0.06 mg/mL) was added (50 μL/well) and incubated for 4 h at 26 °C. The optical density of each well was measured and the IC50 values were calculated. A negative control experiments with only 1% DMSO was carried out, showing that the solvent by itself has no antiparasitic activity.
# [2] = test system: Leishmania amazonensis promastigotes; experiment: Leishmanicidal activity against L. amazonensis promastigotes (XTT, 72 h); details: for IC50: 72 h; for selectivity ratio at 72 h: mouse (RAW cells), Leishmania amazonensis (parasite), L. amazoniensis SI (selectivity index, cytotoxicity/anti-protozoal activity); for selectivity ratio at 72 h / L. amazoniensis SI (selectivity index, cytotoxicity/anti-protozoal activity): IC50 RAW cells / IC50 L. amazonensis
# [3] = Cytotoxicity on RAW cells (resazurin, 72 h); details: mouse
# [4] = test system: Leishmania braziliensis promastigotes; experiment: Leishmanicidal activity against L. braziliensis promastigotes (XTT, 72 h); details: for IC50: 72 h; for selectivity ratio at 72 h: mouse (RAW cells), Leishmania braziliensis (parasite), L. brasiliensis SI (selectivity index, cytotoxicity/anti-protozoal activity); for selectivity ratio at 72 h / L. brasiliensis SI (selectivity index, cytotoxicity/anti-protozoal activity): IC50 RAW cells / IC50 L. braziliensis
# CB2 receptor = details: cited from earlier work
# [5] = test system: Raw 264.7 murine macrophage cell line; experiment: Cytotoxicity on RAW cells (resazurin, 72 h); details: read-out: Cytotoxicity IC50; RAW cells, 72 h, average ± SD of at least three experiments
# [6] = test system: Leishmania amazonensis promastigotes; details: stated as previously investigated and reported, read-out: IC50 against L. amazonesis promastigotes; cited from earlier work
# [7] = Trypanosoma cruzi, epimastigotes, average ± SD of at least three experiments, read-out: T. cruzi IC50
# [8] = Leishmania amazonensis, read-out: L. amazoniensis IC50, promastigotes, 72 h, average ± SD of at least three experiments
# [9] = read-out: L. brasiliensis IC50, promastigotes, 72 h, average ± SD of at least three experiments
# [10] = RAW 264.7 macrophage cells, Cytotoxicity IC50, RAW cells, 72 h, average ± SD of at least three experiments
# [11] = epimastigotes, average ± SD of at least three experiments, read-out: T. cruzi IC50
# [12] = read-out: L. amazoniensis IC50, promastigotes, average ± SD of at least three experiments
# [13] = read-out: L. brasiliensis IC50, promastigotes, average ± SD of at least three experiments
SMILES,"IC50 [1, 7] [µM]",selectivity ratio at 72 h [1],"IC50 [2, 8] [µM]",selectivity ratio at 72 h [2],IC50 at 72 h [3] [µM],"IC50 [4, 9] [µM]",selectivity ratio at 72 h [4],"IC50 at 72 h [3, 10] [µM]",other results
"COc1ccc2c(c1)OC(C)(C)c1ccc(CO)cc1-2 [10a, (3-Methoxy-6,6-dimethyl-6H-benzo[c]chromen-9-yl)methanol]",88.4 ± 12.2,0.7,66.6 ± 7.4,0.9,59.2 ± 25.9,37.4 ± 1.1,1.6,,
"CCCCCCCCCCCCCCCCOP(=O)([O-])OCC[N+](C)(C)C [Miltefosine, reference compound]",,,,,,13 ± 1.2,,,
"COc1cccc2c1-c1cc(CO)ccc1C(C)(C)O2 [10b, (1-Methoxy-6,6-dimethyl-6H-benzo[c]chromen-9-yl)methanol]",92.5 ± 14.8,0.5,180 ± 21.9,0.3,48.1 ± 18.5,48.1 ± 18.5,1,,
CCCCCc1cc(O)c2c(c1)OC(C)(C)c1ccc(C)cc1-2 [Cannabinol],,,,,,,,,affinity for the CB2 receptor compared to THC (CB2 receptor): 10 times
"CC(C)c1ccc2c(c1)OC(C)(C)c1ccc(CO)cc1-2 [10g, (3-Isopropyl-6,6-dimethyl-6H-benzo[c]chromen-9-yl)methanol]",14.2 ± 4.2,1.6,21.2 ± 7.1,1,22 ± 7.1,19.1 ± 1.1,1.1,,
"Cc1ccc2c(c1)-c1cc(CO)ccc1C(C)(C)O2 [10c, (2,6,6-Trimethyl-6H-benzo[c]chromen-9-yl)methanol]",31.5 ± 7.9,1.3,64.9 ± 12.6,0.6,,39.3 ± 2.4,1,39.3 ± 1.6,
"CCC1(CC)Oc2ccc(OC)cc2-c2cc(CO)ccc21 [8f, (6,6-Diethyl-2-methoxy-6H-benzo[c]chromen-9-yl)methanol]",10.4 ± 0.3,4.2,36.9 ± 3.4,1.2,,46.9 ± 5,0.9,43.6 ± 15.1,
"COc1ccc2c(c1)-c1cc(CO)ccc1CO2 [8a, (2-Methoxy-6H-benzo[c]chromen-9-yl)methanol]",,1.3,132 ± 29.3,0.6,,248 ± 54.1,0.3,82.6 ± 9.5,"IC50 ([1]; Trypanosoma cruzi, read-out: T. cruzi IC50, epimastigotes, 72 h, average ± SD of at least three experiments): 66.6 µM; IC50 [1, 11]: 66 ± 18.2 µM"
"O=C(Cn1ccnc1[N+](=O)[O-])NCc1ccccc1 [Benznidazole, reference compound]",19.2 ± 7.7,,,,,,,,"T. cruzi SI (selectivity index, cytotoxicity/anti-protozoal activity) [1]: 3.9; IC50 [5]: 74.7 ± 9.1 µM"
"COc1ccc2c(c1)-c1cc(CO)ccc1C(C)O2 (stereo not shown) [8b, (2-Methoxy-6-methyl-6H-benzo[c]chromen-9-yl)methanol]",35.9 ± 11.7,1,,,,156 ± 23.4,0.2,37.1 ± 3.9,"L. amazoniensis SI (selectivity index, cytotoxicity/anti-protozoal activity) [2]: 0.2; IC50 [2, 12]: 156 ± 58.5 µM"
"CC(C)c1ccc2c(c1)-c1cc(CO)ccc1C(C)(C)O2 [10f, (2-Isopropyl-6,6-dimethyl-6H-benzo[c]chromen-9-yl)methanol]",12.4 ± 3.5,0.7,15.6 ± 2.8,0.6,8.9 ± 3.5,18.1 ± 0.7,0.5,,
"CC1(C)Oc2ccccc2-c2cc(CO)ccc21 [10e, (6,6-Dimethyl-6H-benzo[c]chromen-9-yl)methanol]",50.8 ± 6.2,1.2,91.6 ± 5.4,0.7,,74.9 ± 16.6,0.8,62.4 ± 6.2,
"CCCCC1(CCCC)Oc2ccc(OC)cc2-c2cc(CO)ccc21 [8g, (6,6-Dibutyl-2-methoxy-6H-benzo[c]chromen-9-yl)methanol]",22.8 ± 8.5,1.5,25.4 ± 1.1,1.4,35.3 ± 17.5,29.3 ± 1.4,1.2,,
"CCC1Oc2ccc(OC)cc2-c2cc(CO)ccc21 (stereo not shown) [8d, (6-Ethyl-2-methoxy-6H-benzo[c]chromen-9-yl)methanol]",51.8 ± 9.2,0.6,71.4 ± 1.1,0.4,,45.9 ± 20.3,0.7,30 ± 3.7,
"CCC1Oc2ccc(OC)cc2-c2cc(CO)ccc21 (stereo not shown) [8e, (6-Ethyl-2-methoxy-6H-benzo[c]chromen-9-yl)methanol]",,,,,,,,,"T. cruzi SI (selectivity index, cytotoxicity/anti-protozoal activity) [1]: 1.2; IC50 [1, 11]: 37 ± 0.7 µM; L. amazoniensis SI (selectivity index, cytotoxicity/anti-protozoal activity) [2]: 0.6; IC50 [2, 12]: 70.3 ± 3.7 µM; IC50 [5]: 44.4 ± 11.5 µM; L. brasiliensis SI (selectivity index, cytotoxicity/anti-protozoal activity) [4]: 1.0; IC50 [4, 13]: 45.1 ± 19.2 µM"
"CCCCCc1ccc2c(c1)-c1cc(CO)ccc1C(C)(C)O2 [10h, (6,6-Dimethyl-2-pentyl-6H-benzo[c]chromen-9-yl)methanol]",6.4 ± 0.3,2,16.8 ± 1.9,0.8,12.9 ± 3.2,16.4 ± 0.3,0.8,,
"Cc1ccc2c(c1)OC(C)(C)c1ccc(CO)cc1-2 [10d, (3,6,6-Trimethyl-6H-benzo[c]chromen-9-yl)methanol]",33 ± 3.9,1.1,51.9 ± 13.8,0.7,35.4 ± 7.9,40.1 ± 8.3,0.9,,
"COc1ccc2c(c1)-c1cc(CO)ccc1C(C)(C)O2 [compound 1, pulchrol]",18.5 ± 9.6,,,,,59.2 ± 11.8,,,"T. cruzi SI (selectivity index, cytotoxicity/anti-protozoal activity) [1]: 1.7; L. amazoniensis SI (selectivity index, cytotoxicity/anti-protozoal activity) [2]: 0.4; IC50 [5]: 30.7 ± 1.1 µM; IC50 [6]: 77.7 µM; L. brasiliensis SI (selectivity index, cytotoxicity/anti-protozoal activity) [4]: 0.5"
"COc1ccc2c(c1)-c1cc(CO)ccc1C(C)O2 (stereo not shown) [8c, (2-Methoxy-6-methyl-6H-benzo[c]chromen-9-yl)methanol]",,,,,,,,,"T. cruzi SI (selectivity index, cytotoxicity/anti-protozoal activity) [1]: 0.8; IC50 [1, 11]: 67.1 ± 31.2 µM; L. amazoniensis SI (selectivity index, cytotoxicity/anti-protozoal activity) [2]: 0.7; IC50 [2, 12]: 71.8 ± 12.5 µM; IC50 [5]: 52.7 ± 9 µM; L. brasiliensis SI (selectivity index, cytotoxicity/anti-protozoal activity) [4]: 0.4; IC50 [4, 13]: 129 ± 24.6 µM"
